Consider 13 compounds from ChEMBL document CHEMBL6109079, “Discovery of novel pyrimidinetrione derivatives as DprE1 inhibitors with potent antimycobacterial activities” (Eur J Med Chem, 2025).

Series [1] can be described thus: Cytotoxicity against human THP-1 cells assessed as cell viability at 200 uM incubated for 24 hrs by CCK-8 assay relative to control. It counts as toxicity, cell-based. To be noted: read-out: Activity. Background: Tetrazolium assays rely on reduction of a dye to a coloured formazan, in cell work by metabolically active cells.
Series [2] in a line: Cytotoxicity against human THP-1 cells assessed as reduction in cell viability incubated for 24 hrs by CCK-8 assay. It counts as toxicity, cell-based.
In series [3] the test system is Mycobacterium tuberculosis. As to the kind of experiment: Antibacterial activity against Mycobacterium tuberculosis H37Ra assessed as inhibition of bacterial growth incubated for 1 weeks by absorbance based microplate reader. The format is functional. To be noted: 168 h.
Series [4] in a line: Selectivity index, ratio of CC50 for cytotoxicity against human THP-1 cells to MIC50 for antibacterial activity against Mycobacterium tuberculosis H37Ra. It counts as toxicity, cell-based. To be noted: read-out: Selectivity Index.
Series [5] has as its system Mycobacterium tuberculosis. The experiment in a line: Antibacterial activity against Mycobacterium tuberculosis H37Rv assessed as inhibition of bacterial growth at 10 uM incubated for 3 weeks by absorbance based microplate reader relative to control. The format is functional. As to conditions: 504 h.
The test system of series [6] is Mycobacterium tuberculosis. The experiment in a line: Antibacterial activity against Mycobacterium tuberculosis H37Ra assessed as inhibition of bacterial growth at 10 uM incubated for 3 weeks by absorbance based microplate reader relative to control. To be noted: 504 h. It counts as functional.
A short description of series [7]: Inhibition of DprE1 (unknown origin) preincubated with FAD followed by compound addition and measured after 2 mins by fluorescence based microplate reader. Set-up: species or system Bacteria.
Series [8] concerns Mycobacterium tuberculosis. As to the kind of experiment: Antibacterial activity against Mycobacterium tuberculosis H37Ra assessed as inhibition of bacterial growth at 50 uM incubated for 3 weeks by absorbance based microplate reader relative to control. The format is functional. To be noted: 504 h.
Series [9] has as its target T1, Decaprenylphosphoryl-beta-D-ribose oxidase (Mycobacterium smegmatis (strain ATCC 700084 / mc(2)155), UniProt A0R607).
T1 sequence (A0R607 whole entry): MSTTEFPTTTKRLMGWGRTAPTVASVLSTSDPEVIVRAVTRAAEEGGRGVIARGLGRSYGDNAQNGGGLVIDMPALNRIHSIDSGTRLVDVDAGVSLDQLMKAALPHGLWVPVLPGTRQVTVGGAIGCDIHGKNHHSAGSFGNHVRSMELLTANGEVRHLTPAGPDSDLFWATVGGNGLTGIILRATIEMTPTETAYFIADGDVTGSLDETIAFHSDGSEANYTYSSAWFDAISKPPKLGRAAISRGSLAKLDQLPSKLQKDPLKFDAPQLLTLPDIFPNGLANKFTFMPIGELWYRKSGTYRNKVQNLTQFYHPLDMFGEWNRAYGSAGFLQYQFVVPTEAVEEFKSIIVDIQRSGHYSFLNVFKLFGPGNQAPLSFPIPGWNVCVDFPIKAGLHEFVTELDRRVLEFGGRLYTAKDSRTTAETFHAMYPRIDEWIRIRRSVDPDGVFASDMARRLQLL
As to the kind of experiment: Binding affinity to full length N-terminal 6his-tagged Mycobacterium smegmatis ATCC 607 DprE1 extracted from Escherichia coli BL21 assessed as dissociation constant incubated for 10 mins. Further details: species or system Mycolicibacterium smegmatis.

Series [10] can be described thus: Binding affinity to recombinant DprE1 (unknown origin) assessed as dissociation constant incubated for 10 mins by MST analysis. Further details: species or system Bacteria.
In series [11] the test system is Mycobacterium tuberculosis. As to the kind of experiment: Antibacterial activity against Mycobacterium tuberculosis H37Ra infected in PMA-differentiated human THP-1 cells assessed as reduction in colony forming units measured after 3 weeks by absorbance based assay. It counts as functional, organism-based. To be noted: dose 10-100 µM.
The subject of series [12] is Mycobacterium tuberculosis. The experiment in a line: Antibacterial activity against Mycobacterium tuberculosis H37Rv infected in PMA-differentiated human THP-1 cells assessed as reduction in colony forming units at 100 uM measured after 3 weeks by absorbance based assay. The format is functional, organism-based.

pIC50, pKd: −log10 of the molar value. Values after ≈ are worked out from the molar mass of the structure shown. Active and inactive are the calls of the source. No cut-off for these calls is given here.

The term CC50 denotes the concentration at which the toxic effect on the cells reaches its halfway point. As a reminder, the MIC50 is the lowest concentration that inhibits either 50% of growth or 50% of the strains tested, depending on the study. As a reminder, the inhibition is the share of the control response that was lost under treatment. The pIC50 is −log10 of the IC50, conventionally taken in molar units. Lower therefore signals a large IC50. For the compound `CC[C@@H](C)N1C(=O)NC(=O)/C(=C\NNC(=O)c2ccncc2)C1=O`, the viability at 24 h, 200 µM in [1] amounted to 100%. The CC50 at 24 h in series [2] was more than 200 µM. The MIC50 in [3] came to 2.5 µM (≈ 0.83 µg/mL). For the same compound, the selectivity ratio in [4] was more than 68.1. The inhibition at 10 µM in series [5] and in [6] was 100% throughout. The compound further had a pIC50 in series [7] of 4.30. Besides, the inhibition at 50 µM in [8] was 100%.
On to `O=C1NC(=O)N(Cc2ccccc2)C(=O)/C1=C/NNC(=O)c1ccncc1`, for which, in [1], the viability at 24 h, 200 µM is 100%. Also, in [2], the half-maximal cytotoxic concentration (CC50) at 24 h was more than 200 µM. The MIC50 in series [3] turned out to be 3.15 µM (≈ 1.15 µg/mL). Besides, the selectivity ratio in series [4] was more than 63.5. The inhibition at 10 µM in series [5] and in [6] was 100% throughout. This compound also showed a pIC50 in series [7] of 4.99. The inhibition at 50 µM in [8] came to 100%.
For `O=C1NC(=O)N(C2CCCCC2)C(=O)/C1=C/NNC(=O)c1ccncc1`, the viability at 24 h, 200 µM in series [1] was 100%. The CC50 at 24 h in series [2] is more than 200 µM. The MIC50 in series [3] amounted to 5.34 µM (≈ 1.91 µg/mL). In addition, in [4], the selectivity ratio is more than 37.5. Moreover, the inhibition at 10 µM in series [5] and in series [6] was 100% throughout. The compound also had a pIC50 in series [7] of 4.78. Also, the inhibition at 50 µM in [8] was 100%.
As for `O=C1NC(=O)C(=CNNC(=O)c2ccncc2)C(=O)N1`, the viability at 24 h, 200 µM in [1] is 100%. For the same compound, the half-maximal cytotoxic concentration (CC50) at 24 h in series [2] is more than 200 µM. Further, the MIC50 in series [3] came to 1.78 µM (≈ 0.491 µg/mL). In addition, in series [4], the selectivity ratio was more than 112. Also, the inhibition at 10 µM in series [5] and in series [6] was 100% throughout. Besides, the pIC50 in series [7] is less than 4.00. For the same compound, in [8], the inhibition at 50 µM is 100%.
By pKd is commonly meant the negative decadic logarithm of the Kd, by convention in mol/L. On to `C=CCN1C(=O)NC(=O)/C(=C\NNC(=O)c2ccncc2)C1=O`, for which the pKd in series [9] was 8.60; in series [10] it was 7.60. The pIC50 in series [7] was 4.26.
For `O=C1NC(=O)N(C2CCC2)C(=O)/C1=C/NNC(=O)c1ccncc1`, in series [1], the viability at 24 h, 200 µM was 100%. The CC50 at 24 h in [2] is more than 200 µM. For the same compound, the MIC50 in series [3] turned out to be 2.37 µM (≈ 0.782 µg/mL). The selectivity ratio in [4] was more than 84.2. Besides, the inhibition at 10 µM in series [5] and in series [6] was 100% each time. This compound also showed a pIC50 in [7] of 4.74. Moreover, in series [8], the inhibition at 50 µM worked out at 100%.
As for `O=C1NC(=O)N(CCO)C(=O)/C1=C/NNC(=O)c1ccncc1`, the viability at 24 h, 200 µM in [1] came out at 100%. Besides, the half-maximal cytotoxic concentration (CC50) at 24 h in series [2] was more than 200 µM. For the same compound, in series [3], the MIC50 was 1.2 µM (≈ 0.384 µg/mL). Also, in series [4], the selectivity ratio is more than 166. For the same compound, the inhibition at 10 µM in series [5] and in series [6] was 100% in each case. In series [7], this compound showed a pIC50 of 4.34. In series [11], the Activity result is “Dose-dependent-effect”. In [8], the inhibition at 50 µM was determined as 100%. Also, in [10], the pKd is 6.87.
On to `CC(C)N1C(=O)NC(=O)/C(=C\NNC(=O)c2ccncc2)C1=O`, for which the viability at 24 h, 200 µM in series [1] was found to be 100%. Also, the half-maximal cytotoxic concentration (CC50) at 24 h in series [2] was more than 200 µM. The MIC50 in [3] was found to be 1.75 µM (≈ 0.555 µg/mL). For the same compound, in series [4], the selectivity ratio is more than 114. Further, the inhibition at 10 µM in series [5] and in series [6] was 100% throughout. Besides, the pIC50 in series [7] is 4.32. Also, the inhibition at 50 µM in series [8] was 100%.
Regarding `C#CCN1C(=O)NC(=O)/C(=C\NNC(=O)c2ccncc2)C1=O`, in series [1], the viability at 24 h, 200 µM turned out to be 100%. Further, the CC50 at 24 h in [2] was more than 200 µM. For the same compound, in [3], the MIC50 was determined as 1.07 µM (≈ 0.336 µg/mL). Further, the selectivity ratio in [4] was more than 187. Moreover, the inhibition at 10 µM in series [5] and in series [6] was 100% throughout. The result in series [12] was Active. The same compound had a pIC50 in series [7] of 4.90. Moreover, in [11], the Activity entry is “Dose-dependent-effect; Best Bactericidal Effect Observed”. Further, the inhibition at 50 µM in series [8] was determined as 100%. Further, in [10], the pKd was 7.17.
`CCN1C(=O)NC(=O)/C(=C\NNC(=O)c2ccncc2)C1=O`: the viability at 24 h, 200 µM in series [1] amounted to 100%. The CC50 at 24 h in [2] is more than 200 µM. In addition, the MIC50 in [3] amounted to 1.36 µM (≈ 0.414 µg/mL). Moreover, the selectivity ratio in series [4] is more than 147. Besides, the inhibition at 10 µM in [5] and in series [6] was 100% in each case. The compound also gave a negative-log IC50 (pIC50) in [7] of 4.28. In addition, the inhibition at 50 µM in series [8] was found to be 100%.
For the compound `O=C1NC(=O)N(C2CC2)C(=O)/C1=C/NNC(=O)c1ccncc1`, the viability at 24 h, 200 µM in [1] came to 100%. Also, the CC50 at 24 h in series [2] is more than 200 µM. In addition, the MIC50 in [3] was 1.12 µM (≈ 0.353 µg/mL). Moreover, the selectivity ratio in [4] is more than 179. Also, the inhibition at 10 µM in series [5] and in series [6] was 100% each time. Also, in [7], the pIC50 was 4.69. In addition, in [11], the Activity entry is “Dose-dependent-effect”. Further, in series [8], the inhibition at 50 µM stood at 100%. For the same compound, in series [10], the pKd is 5.65.
On to `CN1C(=O)NC(=O)/C(=C\NNC(=O)c2ccncc2)C1=O`, for which the viability at 24 h, 200 µM in series [1] worked out at 100%. Moreover, the CC50 at 24 h in [2] is more than 200 µM. Further, in series [3], the MIC50 is 1.4 µM (≈ 0.405 µg/mL). For the same compound, the selectivity ratio in [4] was more than 143. The inhibition at 10 µM in series [5] and in series [6] was 100% in each case. The negative logarithm of the IC50 (pIC50) in series [7] is 4.30. Moreover, the inhibition at 50 µM in series [8] worked out at 100%.
Regarding `C=CCN1C(=O)C(=CNNC(=O)c2ccncc2)C(=O)N(CC=C)C1=O`, in [1], the viability at 24 h, 200 µM is 100%. For the same compound, the CC50 at 24 h in series [2] is more than 200 µM. For the same compound, in [3], the MIC50 was 2.89 µM (≈ 1.03 µg/mL). The selectivity ratio in series [4] was more than 69.2. The inhibition at 10 µM in [5] and in series [6] was 100% throughout. For the same compound, the pIC50 in series [7] is less than 4.00. Moreover, the inhibition at 50 µM in series [8] was 100%.
